Results published in patent US20200157092A1, “[1,2,4]-TRIAZOLO [1,5-A]-PYRIMIDINYL DERIVATIVES SUBSTITUTED WITH PIPERIDINE, […] […] OGA INHIBITORS” (priority 2017, published 2020).
Where two headings read alike, the source gives them in different places.

Experiments:
[1] = molecular target: T1, recombinant human Meningioma Expressed Antigen 5 (MGEA5), also referred to as O-GlcNAcase (OGA) (Homo sapiens, UniProt O60502); experiment: OGA biochemical assay: inhibition of FM-GlcNAc hydrolysis, fluorescence; protocol A (10 nM OGA, 1 h) or protocol B (2 nM OGA, 6 h); conditions: for IC50: read-out: Enzymatic hOGA, pIC50 (converted)
T1 construct: Full length OGA enzyme was purchased at OriGene (cat # TP322411); purchased OriGene TP322411
T1 sequence (O60502 1-916): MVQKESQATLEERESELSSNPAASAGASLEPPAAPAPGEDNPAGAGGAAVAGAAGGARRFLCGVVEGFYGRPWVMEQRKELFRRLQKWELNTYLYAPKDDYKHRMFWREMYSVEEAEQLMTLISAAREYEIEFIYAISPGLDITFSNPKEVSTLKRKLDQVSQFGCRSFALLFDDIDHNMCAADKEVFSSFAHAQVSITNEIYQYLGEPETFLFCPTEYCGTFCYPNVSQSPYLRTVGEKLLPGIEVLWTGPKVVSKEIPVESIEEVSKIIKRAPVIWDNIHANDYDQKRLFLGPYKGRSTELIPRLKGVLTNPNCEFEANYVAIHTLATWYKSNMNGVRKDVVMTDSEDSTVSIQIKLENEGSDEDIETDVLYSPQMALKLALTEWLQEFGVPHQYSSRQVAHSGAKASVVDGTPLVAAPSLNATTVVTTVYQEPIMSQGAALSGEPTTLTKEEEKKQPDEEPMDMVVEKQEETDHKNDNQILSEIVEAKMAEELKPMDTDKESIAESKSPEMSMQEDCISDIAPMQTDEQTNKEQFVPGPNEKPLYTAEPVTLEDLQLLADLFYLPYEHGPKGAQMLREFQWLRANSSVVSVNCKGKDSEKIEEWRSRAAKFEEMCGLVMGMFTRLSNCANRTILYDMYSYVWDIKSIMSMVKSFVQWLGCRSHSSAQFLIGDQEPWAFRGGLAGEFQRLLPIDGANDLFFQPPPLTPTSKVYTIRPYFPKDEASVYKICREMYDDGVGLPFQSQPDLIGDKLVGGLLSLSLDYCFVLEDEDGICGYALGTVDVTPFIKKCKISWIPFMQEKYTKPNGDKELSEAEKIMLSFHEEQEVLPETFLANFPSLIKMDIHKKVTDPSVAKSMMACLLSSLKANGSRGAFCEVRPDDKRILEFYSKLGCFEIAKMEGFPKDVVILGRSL
Experimental: The hydrolysis FM-GlcNAc (Marker Gene technologies, cat # M1485) results in the formation of ß-D-N-glucosamineacetate and fluorescein. The fluorescence of the latter can be measured at excitation wavelength 485 nm and emission wavelength 538 nm. An increase in enzyme activity results in an increase in fluorescence signal. Full length OGA enzyme was purchased at OriGene (cat # TP322411). The enzyme was stored in 25 mM Tris.HCl, pH 7.3, 100 mM glycine, 10% glycerol at −20° C. […] The assay was performed in 200 mM Citrate/phosphate buffer supplemented with 0.005% Tween-20. 35.6 g Na2HPO4 2 H2O (Sigma, # C0759) were dissolved in 1 L water to obtain a 200 mM solution. […] The buffer to stop the reaction consists of a 500 mM Carbonate buffer, pH 11.0. […] OGA was used at a 10 nM (protocol A) or 2 nM (protocol B) concentration and FM-GlcNAc at a 100 uM final concentration. Dilutions were prepared in assay buffer.
Plates were pre-incubated for 60 min at room temperature and then 2 μl FM-GlcNAc substrate mix added. […] Plates were briefly centrifuged for 1 min at 1000 rpm and incubate at room temperature for 1 h (10 nM OGA, protocol A) or 6 h (2 nM OGA, protocol B). To stop the reaction 5 μl STOP buffer were added and plates centrifuge again 1 min at 1000 rpm. Fluorescence was quantified in the Thermo Scientific Fluoroskan Ascent or the PerkinElmer EnVision with excitation wavelength 485 nm and emission wavelength 538 nm.
For analysis a best-fit curve is fitted by a minimum sum of squares method. From this an IC50 value and Hill coefficient was obtained. High control (no inhibitor) and low control (saturating concentrations of standard inhibitor) were used to define the minimum and maximum values.

OGA = molecular target: T2, OGA (Homo sapiens, UniProt O60502); experiment: OGA cellular assay: immunocytochemical detection of O-GlcNAcylated proteins in HEK293 cells inducible for P301L mutant human Tau; format: cell-based; conditions: for Emax: HEK293, read-out: Cellular Emax (%); for Cellular hOGA; pEC50 / Cellular Emax (%): HEK293 cells inducible for P301L mutant human Tau, 6 hours incubation; for Cellular Emax (%): maximum = Thiamet G 200 uM
T2 construct: HEK293 cells inducible for P301L mutant human Tau (isoform 2N4R) were established at Janssen; endogenous in cells; host or cells: HEK293 cells inducible for P301L mutant human Tau (2N4R)
T2 sequence (O60502 1-916): T1 sequence (O60502 1-916)
Source text: HEK293 cells inducible for P301L mutant human Tau (isoform 2N4R) were established at Janssen. Thiamet-G was used for both plate validation (high control) and as reference compound (reference EC50 assay validation). […] Inhibition of OGA will result in an increase of O-GlcNAcylated protein levels resulting in an increased signal in the experiment. […] ICC pictures are imaged with a Perkin Elmer Opera Phenix plate microscope and quantified with the provided software Perkin Elmer Harmony 4.1.
Cells were propagated in DMEM high Glucose (Sigma, # D5796) following standard procedures. […] At the day of compound test medium from assay plates was removed and replenished with 90 μl of fresh Assay Medium. 10 μl of compounds at a 10 fold final concentration were added to the wells. Plates were centrifuged shortly before incubation in the cell incubator for 6 hours. DMSO concentration was set to 0.2%. Medium is discarded by applying vacuum. For staining of cells medium was removed and cells washed once with 100 μl D-PBS (Sigma, # D8537). From next step onwards unless other stated assay volume was always 50 μl and incubation was performed without agitation and at room temperature. […] Before analysis samples were washed 2 times manually for 5 minutes in ICC base buffer.
Imaging is performed using Perkin Elmer Phenix Opera using a water 20× objective and recording 9 fields per well. Intensity readout at 488 nm is used as a measure of O-GlcNAcylation level of total proteins in wells. To assess potential toxicity of compounds nuclei were counted using the Hoechst staining. IC50-values are calculated using parametric non-linear regression model fitting. As a maximum inhibition Thiamet G at a 200 uM concentration is present on each plate. In addition, a concentration response of Thiamet G is calculated on each plate.

[2] = Enzymatic protocol B (2 nM OGA, 6 h)
[3] = Enzymatic protocol A (10 nM OGA, 1 h)

Row | SMILES | Emax [1, 2] | IC50 [1, 2] | EC50 (OGA) | Emax (OGA) | also measured
1 | CC(=O)Nc1ncc(CN2C[C@@H](c3cc(C)nc4ncnn34)C[C@@H](C(F)(F)F)C2)s1 (mixture of isomers) [Product 84] | 88.5% | 1480 nM | – | – | –
2 | CC(=O)Nc1ncc(S(=O)(=O)N2CCCC(c3ccnc4nccn34)C2)s1 (racemic) [Product 2] | – | – | – | – | Emax [1, 3]: 98.4%; IC50 [1, 3]: 186 nM
3 | CC(=O)Nc1ncc(S(=O)(=O)N2CCCC(c3cc(C)nc4ncnn34)C2)s1 (racemic) [Product 3] | – | – | – | – | Emax [1, 3]: 96%; IC50 [1, 3]: 32.4 nM
4 | CC(=O)Nc1ncc(S(=O)(=O)N2CCCC(c3cc(C(F)F)nc4nccn34)C2)s1 (racemic) [Product 5] | – | – | – | – | Emax [1, 3]: 99.4%; IC50 [1, 3]: 67.6 nM
5 | CC(=O)Nc1ncc(S(=O)(=O)N2CCC(c3cc(C)nc4ncnn34)C2)s1 (racemic) [Product 8] | – | – | – | – | Emax [1, 3]: 89%; IC50 [1, 3]: 1550 nM
6 | CC(=O)Nc1ncc(CN2CCCC(c3ccnc4nccn34)C2)s1 (racemic) [Product 10] | 100% | 35.5 nM | 209 nM | 99% | –
7 | CC(=O)Nc1ncc(CN2CCCC(c3cccc4nccn34)C2)s1 (racemic) [Product 12] | 105% | 10.7 nM | 20.9 nM | 103% | –
8 | CC(=O)Nc1ncc(CN2CCCC(c3ccnc4cc[nH]c34)C2)s1 (racemic) [Product 15] | 97.8% | 37.2 nM | 12.3 nM | 95.2% | –
9 | CC(=O)Nc1ncc(CN2CCCC(c3cnc4cc[nH]c4c3)C2)s1 (racemic) [Product 26] | 123% | 40.7 nM | 24 nM | 99% | –
10 | CC(=O)Nc1ncc(CN2CCC[C@H](c3ccnc4ccn(C)c34)C2)s1 (single isomer, unassigned) [Product 71] | 100% | 12.6 nM | 87.1 nM | 79.2% | –
11 | CC(=O)Nc1ncc(CN2CCC[C@H](c3cc4cc[nH]c4nc3C)C2)s1 (single isomer, unassigned) [Product 75] | – | – | – | – | Enzymatic Emax (%) [1, 2]: 100.81%; Enzymatic hOGA; pIC50 [1, 2]: 8.57; Cellular hOGA; pEC50 (OGA): 7.90; Cellular Emax (%) (OGA): 119.60%
12 | CC(=O)Nc1ncc(CN2CCC[C@@H](c3cnc4ccn(C)c4c3)C2)s1 (single isomer, unassigned) [Product 79] | – | – | – | – | Enzymatic Emax (%) [1, 2]: 102.15%; Enzymatic hOGA; pIC50 [1, 2]: 8.14; Cellular hOGA; pEC50 (OGA): 7.87; Cellular Emax (%) (OGA): 101.35%
13 | CC(=O)Nc1ncc(CN2CCC[C@H](c3cnc4cc[nH]c4c3)C2)s1 (single isomer, unassigned) [Product 80] | – | – | – | – | Enzymatic Emax (%) [1, 2]: 99.58%; Enzymatic hOGA; pIC50 [1, 2]: 7.69; Cellular hOGA; pEC50 (OGA): 7.72; Cellular Emax (%) (OGA): 109.88%
14 | CC(=O)Nc1ncc(S(=O)(=O)N2CCC[C@@H](c3ccnc4ncnn34)C2)s1 [Product 1] | – | – | – | – | Emax [1, 3]: 94.2%; IC50 [1, 3]: 871 nM
15 | CC(=O)Nc1ncc(S(=O)(=O)N2CCC[C@H](c3ccnc4ncnn34)C2)s1 [Product 4] | – | – | – | – | Emax [1, 3]: 107%; IC50 [1, 3]: 30.9 nM
16 | CC(=O)Nc1ncc(CN2CC[C@H](C)[C@@H](c3cc(C(F)F)nc4ncnn34)C2)s1 [Product 16] | 94.5% | 955 nM | – | – | Emax [1, 3]: 92.5%; IC50 [1, 3]: 1820 nM

Row | SMILES | Emax [1, 2] | IC50 [1, 2] | EC50 (OGA) | Emax (OGA) | also measured
17 | CC(=O)Nc1ncc(CN2CCCC(c3cc(C)nc4nccn34)C2)s1 (stereo not drawn) [Product 17] | 101% | 8.51 nM | 55 nM | 106% | –
18 | CC(=O)Nc1ncc(CN2CCC(c3cc(C)nc4ncnn34)C2)s1 (stereo not drawn) [Product 18] | 97.3% | 295 nM | – | – | –
19 | CC(=O)Nc1ncc(CN2CCC(c3c(F)c(C)nc4ncnn34)C2)s1 (stereo not drawn) [Product 19] | 97.2% | 204 nM | – | – | –
20 | CC(=O)Nc1ncc(CN2CCC(c3cc(C)nc4ccnn34)C2)s1 (stereo not drawn) [Product 21] | 98.3% | 407 nM | – | – | –
21 | CC(=O)Nc1ncc(CN2CCCC(Cc3cc(C)nc4ccnn34)C2)s1 (stereo not drawn) [Product 44] | 101% | 3.8 nM | 35.5 nM | 129% | –
22 | CC(=O)Nc1ncc(CN2CCCC(Cc3cncc4nccn34)C2)s1 (stereo not drawn) [Product 45] | 100% | 4.68 nM | 13.5 nM | 96.9% | –
23 | CC(=O)Nc1ncc(CN2CCCC(Cc3cc(C)nc4ncnn34)C2)s1 (stereo not drawn) [Product 46] | 99.8% | 2.34 nM | 14.8 nM | 114% | –
24 | CC(=O)Nc1ncc(CN2CCCC(Cc3c(F)c(C)nc4ncnn34)C2)s1 (stereo not drawn) [Product 47] | 102% | 1.26 nM | 15.5 nM | 109% | –
25 | CC(=O)Nc1ncc(CN2CCC(Cc3cc(C)nc4ncnn34)C2)s1 (stereo not drawn) [Product 48] | 103% | 1.74 nM | 17 nM | 104% | –
26 | CC(=O)Nc1ncc(CN2CCC(Cc3c(F)c(C)nc4ncnn34)C2)s1 (stereo not drawn) [Product 49] | 101% | 1.74 nM | 25.7 nM | 105% | –
27 | Cc1cc(C2CN(C(C)c3ccc4c(c3)OCO4)CCO2)n2ncnc2n1 (stereo not drawn) [Product 53] | 64.6% | 6460 nM | – | – | –
28 | CC(c1ccc2c(c1)OCO2)N1CCOC(c2cc(C(F)(F)F)nc3ncnn23)C1 (stereo not drawn) [Product 54] | 25.1% | > 10000 nM | – | – | –
29 | CC(=O)Nc1ncc(CN2CCCC(C)(c3cc(C(F)F)nc4ncnn34)C2)s1 (stereo not drawn) [Product 61] | 27.4% | > 10000 nM | – | – | –
30 | CC(c1ccc2c(c1)OCO2)N1CCC(Cc2cccc3nccn23)C1 (stereo not drawn) [Product 67] | 95.7% | 102 nM | – | – | –
31 | CC(=O)Nc1ncc(CN2CCCC(c3cc4c(ccn4C)nc3C)C2)s1 (stereo not drawn) [Product 105] | 102% | 7.41 nM | – | – | –
32 | CC(=O)Nc1ncc(S(=O)(=O)N2CCCCC(c3ccnc4ncnn34)C2)s1 (stereo not drawn) [Product 109] | – | – | – | – | Emax [1, 3]: 95.4%; IC50 [1, 3]: 437 nM
